Results taken from US8778919B2, “Cyclic anilino—pyridinotriazines” (Janssen Pharmaceutica NV, priority 2005, dated 2014).

What was measured:
GSK-3α = GSK-3α (Homo sapiens, UniProt P49840); assay: GSK-3 kinase assay (C1), GSK-3α; assay type: biochemical; conditions: 1 μM ATP, read-out: C1 Score α
Outline: (§1)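 Radiometric SPA at room temperature in 25 mM Tris pH 7.4 with 10 mM MgCl2, 1 mM DTT, 5.7 ng/μl GSK-3β or 0.25 ng/μl GSK-3α, 5 μM biotinylated CREB peptide and 1 μM ATP plus ^33P-ATP. Stopped after 1 h; IC50 from dose-response versus no-compound control, reported as pIC50 score bands.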

Chang cells = assay: GSK-3 cellular assay (C2): 14C-D-glucose incorporation into glycogen; assay type: cell-based; conditions: increase in D-glucose incorporation into glycogen, test concentration of 10^−6 M
Protocol: Test compounds were tested for their ability to increase the incorporation of ^14C-D-glucose into glycogen in living cells. To do this, Chang cells (360,000 cells/well) were cultured in 0.5 ml of MEM Rega 3 medium supplemented with 10% fetal calf serum, 1% L-glutamine and 2% sodium carbonate. After 3 days, cells were washed with 0.5 ml of phosphate-buffered saline and overlayed with 1 ml of serum- and glucose-free DMEM medium. Then, 2 μl of compound in DMSO and 50 μl substrate (3 mM glucose and 0.5 μCi ^14C-D-glucose were added and the cultures were incubated for 90 min. Cells were then extracted with 0.5 ml of 20% KOH for 60 min at 37° C. and the cell lysates were transferred to 10 ml tubes containing 300 μl of 1 mg/ml glycogen as […]. Following the addition of 2 ml ethanol, total glycogen was precipitated overnight at −20° C. and the precipitates were recovered by centrifugation. Precipitates were then resuspended in 1 ml of water and transferred to scintillation counter vials. and the amount of ^14C-D-glucose incorporation into glycogen was measured by scintillation counting. Scores for the compounds according to the invention, were obtained at a test concentration of 10^−6 M. Score 1=10-30% increase, Score 2=30-60% increase, Score 3=60-80% increase and Score 4=>80% increase in D-glucose incorporation.

CDK1/cyclinB (h) = CDK1/cyclinB (h) (Homo sapiens, UniProt P06493); assay: Kinase profiling C3.2 CDK1/cyclinB human; assay type: biochemical; conditions: test concentration of 10^−6 M
Outline: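 Radiometric filter-binding assay: human CDK1/cyclinB (5-10 mU) with 0.1 mg/ml histone H1 substrate and [γ-33P]ATP in 8 mM MOPS pH 7.0, 10 mM Mg acetate, 40 min at room temperature. Stopped with phosphoric acid; substrate-bound 33P counted on P30 filtermat by scintillation.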

CDK2/cyclinA (h) = CDK2/cyclinA (h) (Homo sapiens, UniProt P24941); assay: Kinase profiling C3.3 CDK2/cyclinA human; assay type: biochemical; conditions: test concentration of 10^−6 M
Outline: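 Human CDK2/cyclinA (5-10 mU) phosphorylates 0.1 mg/ml histone H1 in 8 mM MOPS pH 7.0, EDTA, 10 mM Mg acetate with [γ-33P]ATP, 40 min at room temperature. After phosphoric acid stop, filter-bound 33P counted by scintillation.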

CDK2/cyclinE (h) = CDK2/cyclinE (h) (Homo sapiens, UniProt P24941); assay: Kinase profiling C3.4 CDK2/cyclinE human; assay type: biochemical; conditions: test concentration of 10^−6 M
Outline: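 Radiometric filter-binding assay: 5-10 mU enzyme with 0.1 mg/ml histone H1 in 8 mM MOPS pH 7.0, 0.2 mM EDTA, 10 mM Mg acetate and [γ-33P]ATP. Incubated 40 min at room temperature, stopped with phosphoric acid. Substrate-bound 33P counted on P30 filtermat.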

CDK3/cyclinE (h) = CDK3/cyclinE (h) (Homo sapiens, UniProt Q00526); assay: Kinase profiling C3.5 CDK3/cyclinE human; assay type: biochemical; conditions: test concentration of 10^−6 M
Outline: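 Human CDK3/cyclinE (5-10 mU) phosphorylated 0.1 mg/ml histone H1 in 8 mM MOPS pH 7.0, 0.2 mM EDTA and 10 mM MgAcetate with [γ-33P]ATP. Reaction ran 40 min at room temperature and was stopped with phosphoric acid. Substrate-bound radioactivity was captured on P30 filtermat and measured by scintillation counting.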

CDK5/p35 human = CDK5/p35 human (Homo sapiens, UniProt Q00535); assay: Kinase profiling C3.6 CDK5/p35 human; assay type: biochemical; conditions: CDK5/p35, test concentration of 10^−6 M
Outline: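 Radiometric filter-binding assay: human CDK5/p35 (5-10 mU) with 0.1 mg/ml histone H1 substrate in 8 mM MOPS pH 7.0, 0.2 mM EDTA, 10 mM Mg acetate and [γ-33P]ATP. Incubated 40 min at room temperature, stopped with phosphoric acid. Substrate 33P incorporation counted on P30 filtermat by scintillation.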

CDK7/cyclinH/MAT1 (h) = CDK7/cyclinH/MAT1 (h) (Homo sapiens, UniProt P50613); assay: Kinase profiling C3.8 CDK7/cyclinH/MAT1 human; assay type: biochemical; conditions: CDK7/cyclinH/MAT1, test concentration of 10^−6 M
Outline: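 Human CDK7/cyclinH/MAT1 (5-10 mU) incubated 40 min at room temperature in 8 mM MOPS pH 7.0, 0.2 mM EDTA, 10 mM Mg acetate, 500 μM peptide substrate and [γ-^33P]ATP. Stopped with phosphoric acid; substrate phosphorylation measured by filter binding and scintillation counting.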

Aurora-A (h) = target: T1, Aurora-A (h) (Homo sapiens, UniProt O14965); assay: Kinase profiling C3.1 Aurora-A human; assay type: biochemical; conditions: test concentration of 10^−6 M
T1 sequence (O14965 1-403): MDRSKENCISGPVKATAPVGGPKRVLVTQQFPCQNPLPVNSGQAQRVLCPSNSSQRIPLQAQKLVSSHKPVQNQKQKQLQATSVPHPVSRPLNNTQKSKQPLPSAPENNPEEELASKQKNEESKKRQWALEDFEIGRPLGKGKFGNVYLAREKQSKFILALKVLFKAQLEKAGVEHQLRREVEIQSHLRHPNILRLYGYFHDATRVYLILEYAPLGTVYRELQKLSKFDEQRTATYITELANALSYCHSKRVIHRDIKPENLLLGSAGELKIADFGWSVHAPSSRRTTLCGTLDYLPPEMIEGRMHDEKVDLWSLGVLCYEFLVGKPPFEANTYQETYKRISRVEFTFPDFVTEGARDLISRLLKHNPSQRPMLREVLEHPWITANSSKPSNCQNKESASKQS
Protocol: (§2) The in vitro inhibition of a panel of kinases was assessed using either the glass-fiber filter technology as described by Davies, S. P. et al., Biochem J. (2000), 351; p. 95-105. In the glass-fiber filter technology the activity of the kinase of interest is measured using an appropriate substrate that is incubated with the aforementioned kinase protein in the presence of (^33P) radiolabeled ATP. (^33P) Phosporylation of the substrate is subsequently measured as radioactivity bound on a glassfiber-filter.
(§3) All kinases are pre-diluted to a 10× working concentration prior to addition into the assay. The composition of the dilution buffer for each kinase is detailed below.
(§4) All substrates are dissolved and diluted to working stocks in de-ionised water, apart from histone H1 that is stored in 10× working stock in 20 mM MOPS pH 7.4.
(§5) In a final reaction volume of 25 μl, Aurora-A (h) (5-10 mU) is incubated with 8 mM MOPS pH 7.0, 0.2 mM EDTA, 200 μM LRRASLG (Kemptide), 10 mM MgAcetate and [γ-^33P-ATP] (specific activity approx. 500 cpm/pmol, concentration as required). The reaction is initiated by the addition of the MgATP mix. After incubation for 40 minutes at room temperature, the reaction is stopped by the addition of 5 μl of a 3% phosphoric acid solution. 10 μl of the reaction is then spotted onto a P30 filtermat and washed three times for 5 minutes in 50 mM phosphoric acid and once in methanol prior to drying and scintillation counting.

cSRC (h) = cSRC (h) (Homo sapiens, UniProt P12931); assay: Kinase profiling C3.9 cSRC human; assay type: biochemical; conditions: test concentration of 10^−6 M
Protocol: as §2, §3, §4
In a final reaction volume of 25 μl, cSRC (h) (5-10 mU) is incubated with 8 mM MOPS pH 7.0, 0.2 mM EDTA, 250 μM KVEKIGEGTYGVVYK (Cdc2 peptide), 10 mM MgAcetate and [γ-^33P-ATP] (specific activity approx. 500 cpm/pmol, concentration as required). The reaction is initiated by the addition of the MgATP mix. After incubation for 40 minutes at room temperature, the reaction is stopped by the addition of 5 μl of a 3% phosphoric acid solution.
10 μl of the reaction is then spotted onto a P30 filtermat and washed three times for 5 minutes in 75 mM phosphoric acid and once in methanol prior to drying and scintillation counting.

Yes (h) = Yes (h) (Homo sapiens, UniProt P07947); assay: Kinase profiling C3.10 Yes human; assay type: biochemical; conditions: test concentration of 10^−6 M
Protocol: as §2, §3, §4
as §5, with “μl, Yes” for “μl, Aurora-A”, “EDTA, 0.1 mg/ml poly(Glu, Tyr) 4:1,” for “EDTA, 200 μM LRRASLG (Kemptide),”, “a Filtermat A” for “a P30 filtermat”, “in 75” for “in 50”

GSK-3β = GSK-3β (Homo sapiens, UniProt P49841); assay: GSK-3 kinase assay (C1), GSK-3β; assay type: biochemical; conditions: 1 μM ATP, read-out: C1 Score β
Outline: as §1

GSK-3α, sequence (P49840 whole entry, species assumed): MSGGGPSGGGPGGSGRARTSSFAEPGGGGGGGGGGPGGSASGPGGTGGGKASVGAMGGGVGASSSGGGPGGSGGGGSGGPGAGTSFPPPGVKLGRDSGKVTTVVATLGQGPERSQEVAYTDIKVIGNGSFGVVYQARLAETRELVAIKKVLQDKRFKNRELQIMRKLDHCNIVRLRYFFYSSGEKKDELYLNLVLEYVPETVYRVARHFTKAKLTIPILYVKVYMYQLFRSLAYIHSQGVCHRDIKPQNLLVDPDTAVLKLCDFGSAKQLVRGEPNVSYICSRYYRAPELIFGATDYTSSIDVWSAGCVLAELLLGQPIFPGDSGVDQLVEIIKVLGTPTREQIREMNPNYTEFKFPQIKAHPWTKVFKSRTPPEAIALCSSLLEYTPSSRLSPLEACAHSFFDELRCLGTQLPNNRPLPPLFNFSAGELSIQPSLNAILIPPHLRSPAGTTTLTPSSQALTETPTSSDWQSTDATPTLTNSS
CDK5/p35 human, sequence (Q00535 whole entry): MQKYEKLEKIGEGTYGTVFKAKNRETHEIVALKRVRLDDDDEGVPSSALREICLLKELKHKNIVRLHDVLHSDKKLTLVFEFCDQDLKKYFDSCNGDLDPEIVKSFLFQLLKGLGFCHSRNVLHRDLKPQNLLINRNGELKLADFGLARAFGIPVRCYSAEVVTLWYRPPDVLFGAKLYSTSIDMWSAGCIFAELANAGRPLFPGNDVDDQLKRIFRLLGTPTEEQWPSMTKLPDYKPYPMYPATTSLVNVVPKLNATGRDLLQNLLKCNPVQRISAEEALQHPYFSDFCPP
CDK5/p35 human, sequence (Q15078 whole entry partner): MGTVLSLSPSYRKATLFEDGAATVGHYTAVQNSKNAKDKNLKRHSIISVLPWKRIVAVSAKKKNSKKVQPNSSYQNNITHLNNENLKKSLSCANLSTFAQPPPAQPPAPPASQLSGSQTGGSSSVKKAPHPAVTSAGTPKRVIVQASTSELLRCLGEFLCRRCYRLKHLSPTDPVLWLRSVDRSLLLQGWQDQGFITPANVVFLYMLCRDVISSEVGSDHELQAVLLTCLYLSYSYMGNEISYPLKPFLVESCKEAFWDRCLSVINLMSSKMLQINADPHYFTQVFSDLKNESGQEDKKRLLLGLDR
CDK1/cyclinB (h), sequence (P06493 whole entry): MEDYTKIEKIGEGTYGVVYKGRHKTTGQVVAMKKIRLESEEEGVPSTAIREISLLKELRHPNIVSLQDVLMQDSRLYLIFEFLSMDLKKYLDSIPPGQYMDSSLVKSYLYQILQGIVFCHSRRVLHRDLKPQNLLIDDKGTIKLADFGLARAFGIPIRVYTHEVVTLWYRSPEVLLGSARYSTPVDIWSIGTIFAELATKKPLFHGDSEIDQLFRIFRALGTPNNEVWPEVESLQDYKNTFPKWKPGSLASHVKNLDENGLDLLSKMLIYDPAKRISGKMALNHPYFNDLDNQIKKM
CDK1/cyclinB (h), sequence (P14635 whole entry partner): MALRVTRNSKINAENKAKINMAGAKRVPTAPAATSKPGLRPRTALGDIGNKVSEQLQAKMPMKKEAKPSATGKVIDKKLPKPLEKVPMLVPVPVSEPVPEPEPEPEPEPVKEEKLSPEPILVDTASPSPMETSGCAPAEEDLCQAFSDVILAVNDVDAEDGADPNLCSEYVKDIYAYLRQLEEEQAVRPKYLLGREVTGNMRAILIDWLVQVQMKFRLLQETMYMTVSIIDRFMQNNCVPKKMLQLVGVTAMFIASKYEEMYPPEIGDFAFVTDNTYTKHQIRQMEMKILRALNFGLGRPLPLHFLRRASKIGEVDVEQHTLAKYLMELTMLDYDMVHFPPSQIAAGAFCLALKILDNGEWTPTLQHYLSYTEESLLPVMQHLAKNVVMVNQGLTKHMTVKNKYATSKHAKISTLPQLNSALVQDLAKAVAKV
GSK-3β, sequence (P49841 whole entry, species assumed): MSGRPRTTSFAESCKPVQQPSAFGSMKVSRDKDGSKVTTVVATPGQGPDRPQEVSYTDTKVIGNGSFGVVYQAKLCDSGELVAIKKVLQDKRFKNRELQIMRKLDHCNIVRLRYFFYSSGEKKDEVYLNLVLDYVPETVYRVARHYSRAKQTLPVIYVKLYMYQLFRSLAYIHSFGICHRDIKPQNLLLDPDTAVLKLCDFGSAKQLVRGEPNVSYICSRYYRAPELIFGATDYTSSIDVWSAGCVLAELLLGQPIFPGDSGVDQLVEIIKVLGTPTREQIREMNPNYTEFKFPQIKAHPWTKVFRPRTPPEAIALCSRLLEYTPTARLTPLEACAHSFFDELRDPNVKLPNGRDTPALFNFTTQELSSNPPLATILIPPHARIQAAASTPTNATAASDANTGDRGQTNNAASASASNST
CDK7/cyclinH/MAT1 (h), sequence (P50613 whole entry): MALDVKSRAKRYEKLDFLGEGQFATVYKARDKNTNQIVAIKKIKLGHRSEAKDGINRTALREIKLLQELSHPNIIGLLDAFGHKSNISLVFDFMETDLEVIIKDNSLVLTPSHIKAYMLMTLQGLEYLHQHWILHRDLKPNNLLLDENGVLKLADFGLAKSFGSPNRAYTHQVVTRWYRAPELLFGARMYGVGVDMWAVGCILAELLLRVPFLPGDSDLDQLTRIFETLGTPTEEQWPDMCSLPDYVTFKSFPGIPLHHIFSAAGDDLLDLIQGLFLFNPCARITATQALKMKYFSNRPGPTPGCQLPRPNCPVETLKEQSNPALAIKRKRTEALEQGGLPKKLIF
CDK7/cyclinH/MAT1 (h), sequence (P51946 whole entry partner): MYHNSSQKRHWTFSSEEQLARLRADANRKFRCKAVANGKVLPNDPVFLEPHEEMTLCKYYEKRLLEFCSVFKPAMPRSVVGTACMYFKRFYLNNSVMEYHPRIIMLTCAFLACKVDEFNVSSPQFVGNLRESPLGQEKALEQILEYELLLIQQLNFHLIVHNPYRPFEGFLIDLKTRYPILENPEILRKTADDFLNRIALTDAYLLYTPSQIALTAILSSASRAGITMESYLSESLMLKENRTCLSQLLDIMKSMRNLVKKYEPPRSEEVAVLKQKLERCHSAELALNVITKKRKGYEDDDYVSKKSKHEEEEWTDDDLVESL
CDK7/cyclinH/MAT1 (h), sequence (P51948 whole entry partner): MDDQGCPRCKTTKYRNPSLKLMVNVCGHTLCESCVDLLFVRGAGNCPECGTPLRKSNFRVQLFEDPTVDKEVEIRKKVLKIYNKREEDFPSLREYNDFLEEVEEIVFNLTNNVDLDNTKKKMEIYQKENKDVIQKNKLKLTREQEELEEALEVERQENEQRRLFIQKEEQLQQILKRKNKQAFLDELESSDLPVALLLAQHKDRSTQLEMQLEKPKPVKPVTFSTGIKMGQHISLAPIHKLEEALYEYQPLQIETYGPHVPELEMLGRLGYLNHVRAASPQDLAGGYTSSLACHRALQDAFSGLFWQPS
cSRC (h), sequence (P12931 whole entry): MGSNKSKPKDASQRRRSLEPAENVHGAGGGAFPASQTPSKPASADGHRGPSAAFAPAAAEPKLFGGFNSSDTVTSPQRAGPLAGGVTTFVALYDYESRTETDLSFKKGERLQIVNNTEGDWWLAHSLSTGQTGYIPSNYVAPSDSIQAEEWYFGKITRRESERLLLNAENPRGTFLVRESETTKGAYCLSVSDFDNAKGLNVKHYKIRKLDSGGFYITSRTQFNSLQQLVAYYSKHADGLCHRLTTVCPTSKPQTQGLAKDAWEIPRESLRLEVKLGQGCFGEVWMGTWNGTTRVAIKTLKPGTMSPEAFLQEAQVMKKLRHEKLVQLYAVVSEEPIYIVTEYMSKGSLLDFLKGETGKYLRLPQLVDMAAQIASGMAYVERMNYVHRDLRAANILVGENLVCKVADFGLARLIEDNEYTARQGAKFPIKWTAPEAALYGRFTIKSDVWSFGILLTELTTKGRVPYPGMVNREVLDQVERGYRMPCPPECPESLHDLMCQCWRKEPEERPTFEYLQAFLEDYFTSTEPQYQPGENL
Yes (h), sequence (P07947 whole entry): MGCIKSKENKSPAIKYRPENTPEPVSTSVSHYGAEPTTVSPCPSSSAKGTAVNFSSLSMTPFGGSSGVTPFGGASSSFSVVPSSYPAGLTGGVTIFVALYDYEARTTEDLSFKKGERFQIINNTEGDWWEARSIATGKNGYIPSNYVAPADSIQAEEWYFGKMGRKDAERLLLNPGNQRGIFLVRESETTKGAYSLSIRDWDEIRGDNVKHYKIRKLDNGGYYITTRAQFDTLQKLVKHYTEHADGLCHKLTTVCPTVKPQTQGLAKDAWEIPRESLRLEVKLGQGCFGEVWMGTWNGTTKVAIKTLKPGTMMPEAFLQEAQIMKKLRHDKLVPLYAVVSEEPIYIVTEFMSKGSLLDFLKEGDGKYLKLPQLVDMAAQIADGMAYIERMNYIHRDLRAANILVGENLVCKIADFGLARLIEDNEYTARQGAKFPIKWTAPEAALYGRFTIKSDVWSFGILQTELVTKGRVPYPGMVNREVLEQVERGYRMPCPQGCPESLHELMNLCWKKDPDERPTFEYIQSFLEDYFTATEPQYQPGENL

| Structure (SMILES) | IC50 (GSK-3α) [nM] | C3.2 score (CDK1/cyclinB (h)) | C3.3 score (CDK2/cyclinA (h)) | C3.4 score (CDK2/cyclinE (h)) | C3.5 score (CDK3/cyclinE (h)) | C3.6 score (CDK5/p35 human) | C3.8 score (CDK7/cyclinH/MAT1 (h)) | C3.1 score (Aurora-A (h)) | C3.9 score (cSRC (h)) | C3.10 score (Yes (h)) | IC50 (GSK-3β) [nM] | C2 Score (Chang cells) |
| --- | --- | --- | --- | --- | --- | --- | --- | --- | --- | --- | --- | --- |
| O=C1CNCc2cccc(c2)Nc2ncnc(n2)-c2cncc(c2)CCCN1 [Compound 83] | 10 to 100 | – | 2 (Score 2 = 30-60% inhibition) | – | – | – | – | 2 (Score 2 = 30-60% inhibition) | 2 (Score 2 = 30-60% inhibition) | 2 (Score 2 = 30-60% inhibition) | – | 4 (Score 4=>80% increase in D-glucose incorporation) |
| CN1CC(=O)NCCCNc2cc(ccn2)-c2ncnc(n2)Nc2cccc(c2)C1 [Compound 5] | 10 to 100 | – | – | – | – | – | – | – | – | – | 10 to 100 | 4 (Score 4=>80% increase in D-glucose incorporation) |
| CN1CC(=O)NCCNc2cc(ccn2)-c2ncnc(n2)Nc2cccc(c2)C1 [Compound 4] | 10 to 100 | – | – | – | – | – | – | – | – | – | 10 to 100 | 4 (Score 4=>80% increase in D-glucose incorporation) |

Second part, led by results:

| IC50 (GSK-3α) [nM] | C3.2 score (CDK1/cyclinB (h)) | C3.3 score (CDK2/cyclinA (h)) | C3.4 score (CDK2/cyclinE (h)) | C3.5 score (CDK3/cyclinE (h)) | C3.6 score (CDK5/p35 human) | C3.8 score (CDK7/cyclinH/MAT1 (h)) | C3.1 score (Aurora-A (h)) | C3.9 score (cSRC (h)) | C3.10 score (Yes (h)) | IC50 (GSK-3β) [nM] | Structure (SMILES) | C2 Score (Chang cells) |
| --- | --- | --- | --- | --- | --- | --- | --- | --- | --- | --- | --- | --- |
| < 10 | 4 (Score 4 = >80% inhibition) | 4 (Score 4 = >80% inhibition) | 4 (Score 4 = >80% inhibition) | 2 (Score 2 = 30-60% inhibition) | 3 (Score 3 = 60-80% inhibition) | 1 (Score 1 = 10-30% inhibition) | – | – | – | – | O=C1CN2CCN(CC2)Cc2cccc(c2)Nc2ncnc(n2)-c2cccc(c2)CCCN1 [Compound 52] | 4 (Score 4=>80% increase in D-glucose incorporation) |
| < 10 | 3 (Score 3 = 60-80% inhibition) | 2 (Score 2 = 30-60% inhibition) | 3 (Score 3 = 60-80% inhibition) | 2 (Score 2 = 30-60% inhibition) | 2 (Score 2 = 30-60% inhibition) | 1 (Score 1 = 10-30% inhibition) | – | – | – | – | O=C1CN2CCN(CC2)Cc2cccc(c2)Nc2ncnc(n2)-c2cncc(c2)CCCN1 [Compound 84] | 3 (Score 3=60-80% increase) |
